Laboratory results: patent US5705499A, “8-arylalkyl- and 8-arylheteroalkyl-5,11-dihydro-6H-dipyrido[3,2-B:2',3'-e][1]diazepines and their use in the treatment of HIV-1 infection” (Boehringer Ingelheim Pharmaceuticals, Inc., priority 1996, dated 1998)

Test system: C8166-45 cell line
Test: MTT Assay (cytotoxicity)
Type: cell-based, human
Settings: C8166-45 cells, five days

## CCN1c2ncc([C@@H]3O[C@@H]3c3ccccc3)cc2C(=O)N(C)c2ccc(Cl)nc21 (relative stereo) [Example 46, 2Chloro-5,11-dihydro-11-ethyl-5-methyl-8-(2-phenyloxiranyl)-6H-dipyrido[3,2-b:2',3'-e][1,4]diazepin-6-one]
  MTT Assay CC30: > 30 µM

## CCN1c2ncc(CCc3cc[n+]([O-])cc3)cc2C(=O)N(C)c2ccc(Cl)nc21 [Example 8, 2-Chloro-5,11-dihydro-11-ethyl-8-[2-(4-(N-oxopyridyl))ethyl]-5-methyl-6H-dipyrido[3,2-b:2',3'-e][1,4]diazepin-6-one]
  MTT Assay CC30: > 256 µM

## CCN1c2ncc(CC(O)c3ccncc3)cc2C(=O)N(C)c2ccc(Cl)nc21 (centres unmarked) [Example 9, 2-Chloro-5,11-dihydro-11-ethyl-8-[2-hydroxy-2-(pyrid-4yl)ethyl-]5methyl-6H-dipyridol[3,2-b:2',3'-e][1,4]diazepin-6-one]
  MTT Assay CC30: 150 µM

## CCN1c2ncc(CC(F)c3ccncc3)cc2C(=O)N(C)c2ccc(Cl)nc21 (centres unmarked) [Example 11, 2-Chloro-5,11-dihydro-11-ethyl-8-[2-fluoro-2-(4-pyridyl)ethyl]-5-methyl-6H-dipyrido-[3,2-b:2',3'-e][1,4]diazepin-6-one]
  MTT Assay CC30: 150 µM

## CCN1c2ncc(CC(=O)c3ccncc3)cc2C(=O)N(C)c2ccc(Cl)nc21 [Example 12, 2-Chloro-5,11-dihydro-11-ethyl-8-[2-oxo-2-(4-pyridyl)ethyl]-5-methyl-6H-dipyrido[3,2-b:2',3'-e][1,4]diazepin-6-one]
  MTT Assay CC30: 250 µM

## CCN1c2ncc(CC(O)c3cc[n+]([O-])cc3)cc2C(=O)N(C)c2ccc(Cl)nc21 (centres unmarked) [Example 13, 2-Chloro-5,11-dihydro-11-ethyl-8-[2-hydroxy-2-(N-oxo-pyrid-4-yl)ethyl]-5-methyl-6H-dipyrido[3,2-b:2',3'-e][1,4]diazepin-6-one]
  MTT Assay CC30: > 128 µM

## CCN1c2ncc(CCc3cccc(N)c3)cc2C(=O)N(C)c2ccc(Cl)nc21 [Example 22, 8-[2-(3-Aminophenyl)ethyl]-2-chloro-5,11-dihydro-11-ethyl-5-methyl-6H-dipyrido[3,2-b:2',3'-e][1,4]diazepin-6-one]
  MTT Assay CC30: 60 µM

## CCN1c2ncc(CCc3cccc(NC(N)=O)c3)cc2C(=O)N(C)c2ccc(Cl)nc21 [Example 26, 2Chloro-5,11-dihydro-11-ethyl-5-methyl-8-2-[(3-ureidophenyl)ethyl]-6H-dipyrido[3,2-b:2',3'-e][1,4]diazepin-6-one]
  MTT Assay CC30: 35 µM

## CCN1c2ncc(CCc3cccc4[nH]ccc34)cc2C(=O)N(C)c2cccnc21 [Example 29, 5,11-Dihydro-11-ethyl-5methyl-8-[2-(4-indolyl)ethyl]-6H-dipyrido[3,2-b:2',3'-e][1,4]diazepin-6-one]
  MTT Assay CC30: > 60 µM

## CN1C(=O)c2cc(CCc3ccncc3)cnc2N(C2CC2)c2nc(Cl)ccc21 [Example 37, 2Chloro-11-cyclopropyl-5,11-dihydro-5-methyl-8-[2-(pyrid-4-yl)ethyl]-6H-dipyrido[3,2-b:2',3'-e][1,4]diazepin-6-one]
  MTT Assay CC30: > 60 µM

## CCN1c2ncc(CCc3ccncc3)cc2C(=O)N(C)c2ccc(F)nc21 [Example 38, 5,11-Dihydro-11-ethyl-2-fluoro-5-methyl-8-[2-(pyrid-4-yl)ethyl]-6H-dipyrido[3,2-b:2',3'-e][1,4]diazepin-6-one]
  MTT Assay CC30: 150 to 175 µM

## CCN1c2ncc(CC(O)c3ccncc3)cc2C(=O)N(C)c2ccc(F)nc21 (centres unmarked) [Example 40, 5,11-Dihydro-11-ethyl-2-fluoro-8-[2-hydroxy-2-(pyrid-4-yl)ethyl]-5-methyl-6H-dipyrido[3,2-b:2',3'-e][1,4]diazepin-6-one]
  MTT Assay CC30: > 20 µM

## CCN1c2ncc(CCc3ccc4ccccc4c3)cc2C(=O)N(C)c2ccc(F)nc21 [Example 41, 5,11-Dihydro-11-ethyl-2-fluoro-5-methyl-8-[2-(2-naphthyl)ethyl]-6H-dipyrido[3,2-b:2',3'-e][1,4]diazepin-6-one]
  MTT Assay CC30: 20 µM

## CCN1c2ncc(CCc3ccccc3C)cc2C(=O)N(C)c2cccnc21 [Example 62, 5,11-Dihydro-11-ethyl-5-methyl-8-[2-(2-tolyl)ethyl]-6H-dipyrido[3,2-b:2',3'-e][1,4]diazepin-6-one]
  MTT Assay CC30: > 130 µM

## CCN1c2ncc(CCc3ccccc3N)cc2C(=O)N(C)c2cccnc21 [Example 64, 8-[2-(2-Aminophenyl)ethyl]-5,11-dihydro-11-ethyl-5-methyl-6H-dipyrido[3.2-b:2',3'-e][1,4]diazepin-6-one]
  MTT Assay CC30: > 200 µM

## CCN1c2ncc(CCc3ccnc(C)c3)cc2C(=O)N(C)c2cccnc21 [Example 65, 5,11-Dihydro-11-ethyl-5-methyl-8-[2-(2-methylpyrid-4-yl)ethyl]-6H-dipyrido[3,2-b:2',3'-e][1,4]diazepin-6-one]
  MTT Assay CC30: 230 µM

## CCN1c2ncc(CCc3ccnc(C)c3)cc2C(=O)N(C)c2ccc(Cl)nc21 [Example 66, 2-Chloro-5,11-dihydro-11-ethyl-5-methyl-8-[2-(2-methylpyrid-4-yl)ethyl]-6H-dipyrido[3,2-b:2',3'-e][1.4]diazepin-6-one]
  MTT Assay CC30: 100 µM

## CCN1c2ncc(CCc3ccnc(CO)c3)cc2C(=O)N(C)c2ccc(Cl)nc21 [Example 67, 2-Chloro-5,11-dihydro-11-ethyl-5-methyl-8-[2-(2-hydroxymethyl-4-pyridyl)ethyl]-6H -dipyrido[3,2-b:2',3'-e][1,4]diazepin-6-one]
  MTT Assay CC30: 128 µM

## CCN1c2ncc(CCc3ccnc(C(N)=O)c3)cc2C(=O)N(C)c2ccc(Cl)nc21 [Example 69, 2-Chloro-5,11-dihydro-11-ethyl-5-methyl-8-[2-(2-carboxamidopyrid-4-yl)ethyl]-6H-dipyrido[3,2-b:2',3'-e][1,4]diazepin-6-one]
  MTT Assay CC30: > 128 µM

## CCN1c2ncc(CCc3ccccc3)cc2C(=O)Nc2c1nc(Cl)c(Br)c2C [Example 75, 3-Bromo-2-chloro-5,11-dihydro-11-ethyl-4-methyl-8-(2-phenylethyl)-6H-dipyrido[3,2-b:2',3'-e][1,4]diazepin-6-one]
  MTT Assay CC30: > 130 µM

## CCN1c2ncc(CCc3ccccc3)cc2C(=O)Nc2c(C)ccnc21 [Example 76, 5,11-Dihydro-11-ethyl-4-methyl-8-(2-phenylethyl)-6H-dipyrido[3,2-b:2',3'-e][1,4]diazepin-6-one]
  MTT Assay CC30: > 130 µM

## CCN1c2ncc(C=O)cc2C(=O)N(C)c2ccc(Cl)nc21 [Example 80, 2-chloro-5,11-dihydro-11-ethyl-8-formyl-5-methyl-6H-dipyrido[3,2-b:2',3'-e][1,4]diazepin-6-one]
  MTT Assay CC30: 65 µM

## CCN1c2ncc(CCl)cc2C(=O)N(C)c2ccc(Cl)nc21 [Example 82, 2-chloro-8-chloromethyl-5,11-dihydro-11-ethyl-5-methyl-6H-dipyrido[3,2-b:2',3'-e][1,4]diazepin-6-one]
  MTT Assay CC30: > 256 µM

## CCN1c2ncc(CCO)cc2C(=O)N(C)c2ccc(Cl)nc21 [Example 85, 2-chloro-5,11-dihydro-11-ethyl-8-(β-hydroxy)ethyl-5-methyl-6H-dipyrido[3,2-b:2',3'-e][1,4]diazepin-6-one]
  MTT Assay CC30: > 256 µM

## CCN1c2ncc(C(C)O)cc2C(=O)N(C)c2ccc(Cl)nc21 (stereo not drawn) [Example 86, 2-chloro-5,11-dihydro-11-ethyl-8-(α-hydroxy)ethyl-5-methyl-6H-dipyrido[3,2-b:2',3'-e][1,4]diazepin-6-one]
  MTT Assay CC30: 256 µM

## CCN1c2ncc(CNc3ccccc3)cc2C(=O)N(C)c2ccc(Cl)nc21 [Example 87, 2-chloro-5,11-dihydro-11-ethyl-5-methyl-8-(phenylamino)methyl-6H-dipyrido[3,2-b:2',3'-e][1,4]diazepin-6-one]
  MTT Assay CC30: > 60 µM

## CCN1c2ncc(CNc3cccc(N)c3)cc2C(=O)N(C)c2ccc(Cl)nc21 [Example 88, 8-(3-aminophenylamino)methyl-2-chloro-5,11-dihydro-11-ethyl-5-methyl-6H-dipyrido[3,2-b:2',3'-e][1,4]diazepin-6-one]
  MTT Assay CC30: 60 µM

## CCN1c2ncc(O)cc2C(=O)N(C)c2ccc(Cl)nc21 [Example 89, 2-chloro-5,11-dihydro-11-ethyl-8-hydroxy-5-methyl-6H-dipyrido[3,2-b:2',3'-e[]1,4]diazepin-6-one]
  MTT Assay CC30: 130 µM

## CCN1c2ncc(OCc3ccccc3)cc2C(=O)N(C)c2ccc(Cl)nc21 [Example 90, 2-chloro-5,11-dihydro-11-ethyl-5-methyl-8-phenylmethoxy-6H-dipyrido[3,2-b:2',3'-e][1,4]diazepin-6-one]
  MTT Assay CC30: > 60 µM

## CCN1c2ncc(COc3cc[n+]([O-])c(C)c3)cc2C(=O)N(C)c2ccc(Cl)nc21 [Example 94, 2-chloro-5,11-dihydro-11-ethyl-5-methyl-8-(N-oxo-2-methylpyrid-4-yloxy)methyl-6H-dipyrido[3,2-b:2',3'-e][1,4]diazepin-6-one]
  MTT Assay CC30: 200 µM

## CCN1c2ncc(COc3cc[n+]([O-])c(C(F)(F)F)c3)cc2C(=O)N(C)c2ccc(Cl)nc21 [Example 95, 2-chloro-5,11-dihydro-11-ethyl-5-methyl-8-(N-oxo-2-trifluoromethylpyrid-4-yloxy)methyl-6H-dipyrido[3,2-b:2',3'-e][1,4]diazepin-6-one]
  MTT Assay CC30: 100 µM

## CCN1c2ncc(COc3cc[n+]([O-])cc3)cc2C(=O)N(C)c2cccnc21 [Example 97, 5,11-dihydro-11-ethyl-5-methyl-8-((1-oxo-pyridin-4-yl)oxy)methyl-6H-dipyrido[3,2-b:2',3'-e][1,4]diazepin-6-one]
  MTT Assay CC30: > 130 µM

## CCN1c2ncc(COc3cccc([N+](=O)[O-])c3)cc2C(=O)N(C)c2ccc(Cl)nc21 [Example 98]
  MTT Assay CC30: > 60 µM

## CCN1c2ncc(COc3cccc(F)c3)cc2C(=O)N(C)c2ccc(Cl)nc21 [Example 101]
  MTT Assay CC30: > 60 µM

## CCN1c2ncc(COc3ccc(F)cc3)cc2C(=O)N(C)c2ccc(Cl)nc21 [Example 103, 2-chloro-5,11-dihydro-11-ethyl-8-(4-fluorophenyloxy)methyl-5-methyl-6H-dipyrido[3,2-b:2',3'-e][1,4]diazepin-6-one]
  MTT Assay CC30: > 60 µM
